In PubChem BioAssay (NCI):
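Tested at 5 concentrations; 48 h exposure; 96-well plates; endpoints linearly interpolated, else capped at highest concentration. The concentration for 50% growth inhibition is given as GI50. TGI is the concentration that stops growth completely.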

Tests used:
Test in all cases: NCI-60 cell line screen, 48 h
CCRF-CEM leukemia = system: CCRF-CEM leukemia
COLO 205 colon = system: COLO 205 colon
EKVX NSCLC = system: EKVX NSCLC
HL-60(TB) leukemia = system: HL-60(TB) leukemia
HOP-18 NSCLC = system: HOP-18 NSCLC
SF-539 CNS = system: SF-539 CNS
SN12C renal = system: SN12C renal
SNB-75 CNS = system: SNB-75 CNS
XF 498 CNS = system: XF 498 CNS
MDA-MB-231 breast = system: MDA-MB-231 breast

Compound | TGI (CCRF-CEM leukemia) | TGI (COLO 205 colon) | TGI (EKVX NSCLC) | TGI (HL-60(TB) leukemia) | TGI (HOP-18 NSCLC) | TGI (SF-539 CNS) | TGI (SN12C renal) | TGI (SNB-75 CNS) | TGI (XF 498 CNS) | GI50 (CCRF-CEM leukemia) | GI50 (COLO 205 colon) | GI50 (EKVX NSCLC) | GI50 (HL-60(TB) leukemia) | GI50 (MDA-MB-231 breast) | TGI (MDA-MB-231 breast) | GI50 (SF-539 CNS) | GI50 (SN12C renal) | GI50 (SNB-75 CNS) | GI50 (HOP-18 NSCLC)
O=C1CN=C(c2ccccc2)c2ccncc2N1 | > 100 µM | > 100 µM | > 100 µM | > 100 µM | > 100 µM | > 100 µM | > 100 µM | > 100 µM | > 100 µM | – | – | – | – | – | – | – | – | – | –
CN(N=O)C(=O)NC(CCCCNC(=O)OCc1ccccc1)C(=O)OCc1ccccc1 (stereo not given) | 57.1 µM | 47.2 µM | > 100 µM | 48.7 µM | – | 32.7 µM | 31.9 µM | 36 µM | 30.6 µM | – | – | – | – | – | – | – | – | – | –
CCOP(=O)(OCC)C(C(=O)OC)C(=O)C(=O)Nc1cccc([N+](=O)[O-])c1 (stereo not given) | > 100 µM | > 100 µM | > 100 µM | > 100 µM | > 100 µM | > 100 µM | > 100 µM | > 100 µM | > 100 µM | – | – | – | – | – | – | – | – | – | –
COc1ccc(C(O)C(c2ccc(OCc3ccccc3)cc2)c2ccc(OCc3ccccc3)cc2)cc1 (stereo not given) | > 100 µM | > 100 µM | > 100 µM | > 100 µM | – | > 100 µM | > 100 µM | > 100 µM | > 100 µM | – | – | – | – | – | – | – | – | – | –
O=S(=O)(c1ccccc1)N1CCC1c1ccccc1 (stereo not given) | > 100 µM | > 100 µM | > 100 µM | 85.1 µM | > 100 µM | > 100 µM | > 100 µM | > 100 µM | > 100 µM | – | – | – | – | – | – | – | – | – | –
Cc1cc(C)c2c(c1)CSCc1cc(C)cc(C)c1-2 | 45.5 µM | 73.3 µM | 81.9 µM | 43.3 µM | > 100 µM | – | > 100 µM | > 100 µM | – | – | – | – | – | – | – | – | – | – | –
O=[N+]([O-])c1ccc(Cl)c(C2CC(c3cccc4ccccc34)=Nc3ccccc3S2=O)c1 (stereo not given) | 11.1 µM | 97.7 µM | > 100 µM | 34.1 µM | > 100 µM | 19.1 µM | > 60.4 µM | > 100 µM | – | – | – | – | – | – | – | – | – | – | –
CCOc1ccc2c(c1)[n+]([O-])c(C(N)=O)c(N)[n+]2[O-] | > 100 µM | > 100 µM | > 100 µM | > 100 µM | > 100 µM | > 100 µM | > 100 µM | > 100 µM | > 100 µM | – | – | – | – | – | – | – | – | – | –
O=C(O)c1ccccc1NS(=O)(=O)c1ccc(Cl)cc1 | > 100 µM | > 100 µM | > 100 µM | – | > 100 µM | > 100 µM | > 100 µM | > 100 µM | > 100 µM | – | – | – | – | – | – | – | – | – | –
CC1COS(=O)N1c1ccccc1 (stereo not given) | > 100 µM | > 100 µM | > 100 µM | > 100 µM | > 100 µM | – | – | > 100 µM | > 100 µM | – | – | – | – | – | – | – | – | – | –
NCCNCCNCc1c2ccccc2c(CNCCNCCN)c2ccccc12 | > 100 µM | > 100 µM | > 100 µM | > 100 µM | > 100 µM | > 100 µM | > 100 µM | – | > 100 µM | – | – | – | – | – | – | – | – | – | –
O=C(c1ccccc1)[C@H]1Nc2ccc(Cl)cc2[C@H]2c3ccccc3O[C@H]21 | – | 37.4 µM | 28.6 µM | – | 24 µM | 28.7 µM | 29.1 µM | 25.6 µM | 28.2 µM | – | – | – | – | – | – | – | – | – | –
CCOc1cc(/C=C/C(=O)CC(=O)/C=C/c2ccc(OC(=O)CNc3nc4ccc(OC)cc4s3)c(OCC)c2)ccc1OC(=O)CNc1nc2ccc(OC)cc2s1 | 5.46 µM | 29.3 µM | 11.7 µM | 15.2 µM | – | 5.14 µM | 65.5 µM | 34.3 µM | – | 1.96 µM | 14 µM | 3.48 µM | 2.77 µM | 13.8 µM | 60 µM | 2.12 µM | 11.6 µM | 6.77 µM | –
N#Cc1nc2cc(Cl)c(Cl)cc2nc1-c1ccc(Cl)cc1 | 25.7 µM | > 100 µM | > 100 µM | > 100 µM | – | > 100 µM | > 78.6 µM | 40.2 µM | – | 8.61 µM | > 76.3 µM | > 100 µM | > 100 µM | 22.3 µM | > 73.4 µM | 46.2 µM | 28.5 µM | 19.9 µM | –
CC(=O)Nc1ccc(CC[C@H]2CCC/C=C/[C@@H]3C[C@H](O)C[C@H]3[C@H](O)/C=C/C(=O)O2)cc1 | > 100 µM | 0.283 µM | 4.33 µM | 3.95 µM | – | > 100 µM | > 100 µM | > 94.7 µM | – | 0.32 µM | 0.139 µM | 0.191 µM | 0.337 µM | 0.0826 µM | 0.252 µM | 0.423 µM | 0.333 µM | 0.0446 µM | –
[O-]c1ccccc1C=NCCN=Cc1ccccc1[O-].[O]=[U+2]=[O] | > 100 µM | > 85.1 µM | > 100 µM | > 84.5 µM | > 77.1 µM | 37.6 µM | > 63.4 µM | 70.2 µM | – | 35.3 µM | > 51.8 µM | 61.5 µM | > 48.4 µM | – | – | 16.7 µM | 28.4 µM | 22.9 µM | 31.2 µM
CS(=O)(=O)N(CCC#N)c1ccc(/C=C2\N=C(c3ccccc3Cl)OC2=O)cc1 | > 100 µM | > 100 µM | > 100 µM | > 100 µM | – | > 100 µM | > 100 µM | > 100 µM | > 100 µM | – | – | – | – | – | – | – | – | – | –
CC[O-].CC[O-].[O-]c1ccccc1C=NC12CC3CC(CC(C3)C1)C2.[O-]c1ccccc1C=NC12CC3CC(CC(C3)C1)C2.[Ti+4] | > 100 µM | > 100 µM | > 100 µM | > 100 µM | > 100 µM | > 100 µM | > 100 µM | – | – | 11 µM | 67.3 µM | > 100 µM | 52.4 µM | – | – | > 100 µM | 86.4 µM | – | 85.5 µM
O=C(c1ccccc1)c1nc2ccc(Cl)cc2cc1C(Br)Br | 7.11 µM | 1.6 µM | 1.69 µM | 1.07 µM | 1.31 µM | 0.537 µM | 0.836 µM | 1.41 µM | 2.5 µM | – | – | – | – | – | – | – | – | – | –
CC(C)CC(NC(=O)C(O)C(N)Cc1ccccc1)C(=O)O (stereo not given) | > 100 µM | > 100 µM | > 100 µM | > 100 µM | – | > 100 µM | > 100 µM | > 100 µM | – | – | – | – | – | – | > 100 µM | – | – | – | –
